Data taken from article PMC11167047 (Cell Death Discovery, 2024).
pIC50: −log10 of the molar value. Where two headings read alike, the source gives them in different places.

Assays:
Ramos = experiment: AlamarBlue viability assay; format: cell-based, human; details: Homo sapiens, Ramos, 24 h, read-out: IC50 (Ramos)
[1] = test system: retinoblastoma (RB) protein phosphorylation; experiment: immunoblotting of phospho-RB in Ramos cells; format: cell-based, human; details: up to 24 h
Method: (§1) Cells were seeded at a density of 2 × 10^6 cells, treated as specified and harvested by centrifugation at 3000 rpm for 5 min, followed by freezing in liquid nitrogen. The cell pellets were thawed on ice and quick-frozen and defrozen in liquid nitrogen for three times, then lysed on ice in lysis buffer (20 mM Tris-HCl, 150 mM NaCl, 1% v/v Triton X-100, 0.5 mM EDTA, 10 mM NaF, 2.5 mM Na4P2O7, protease inhibitor (Sigma, #P2714)) for 30 min, accompanied by vortexing. Subsequently, centrifugation 13,300 rpm for 15 min purified cell lysates from cell debris. The supernatant was transferred to a new tube and the protein concentration was determined by Bradford assay. The samples were diluted with sample buffer. SDS-Page and Western Blot were conducted in accordance with standard workflows. […] The antibody baths were stored at 4 °C and re-used.
(§2) The density of the individual protein band was determined using Image Studio^TM Lite Version 5.2. The density of each protein was divided by the average of all bands of this protein. The ratios of the protein of interest were normalized to the ratio of the respective loading control. To determine the fold change, each normalized ratio was divided by the normalized band of the control line (untreated cells). Fold change is 1 for the control line, n ≥ 2. The results are shown as mean ± standard deviation and were visualized with GraphPad Prism 7.

[2] = test system: RNA polymerase II phosphorylation at Ser2; experiment: immunoblotting of p-Ser2 RNA polymerase II in Ramos cells; format: cell-based, human; details: 0.1 and 1 µM (R547 1 µM), 4-24 h
Method: as §1, §2

Ramos cells [3] = experiment: cell cycle analysis (Nicoletti assay); format: cell-based, human; details: 24 h, sublethal dose, with QVD
Method: DNA content during cell cycle and hypodiploid apoptotic nuclei were measured by the method of Nicoletti et al.. […] Hypodiploid nuclei were measured in logarithmic mode for apoptosis determination. Flow-cytometry analysis was performed on an LSRFortessa^TM (Becton, Dickinson, Heidelberg, Germany) and data analysis was performed using FlowJo_V10 (BD Biosciences).

Ramos cells [4] = experiment: BrdU cell proliferation assay; format: cell-based, human; details: 24 h, non-lethal doses
Method: The Bromodeoxyuridine (BrdU) Cell Proliferation kit from Millipore (#QIA58-1000TEST) was used to measure proliferation of cells. The manufacturer protocol has been optimized as described in the following. 1 × 10^4 cells per well were seeded in a 96-well plate. The cells were pre-incubated with the compounds of interest for 1 h. Following this, the BrdU solution was added and the cells were incubated for a total of 24 h. BrdU is an analog of the nucleoside thymidine and is incorporated into the DNA of dividing cells during replication. Culture medium was removed and cells were fixed and denatured with Fixative/Denaturing solution for 30 min at room temperature. Since suspension cells were used, they had to be centrifuged at 1200 rpm for 5 min after each following step. After, the anti-BrdU-antibody was incubated for 1 h at RT. Cells were washed three times with washing buffer. The secondary antibody, which is coupled to HRP (horseradish peroxidase) was incubated for 30 min at RT. Again, cells were washed three times with washing buffer.
Then, the substrate solution was added, that contained TMB (3,3’,5,5’-Tetramethylbenzidine), which is oxidized by HRP. Oxidation of TMB causes a color change from colorless to blue. The intensity of color change is correlated with the number of bound peroxidases, which depends on the quantity of primary antibodies and therefore on the content of the incorporated BrdU. If the cells are not proliferating, no BrdU is incorporated, resulting in a weak signal.
After 15 min incubation time the stopping reagent was added, causing a pH change and resulting in a color change from blue to yellow. The colored reaction product was quantified at 450 nm using a spectrophotometer. For all measurements, three technical replicates were made. The control was set to 100% proliferation, and the treated cells were normalized to the control. The results were visualized using GraphPad Prism 7.

cyclin B1 expression = experiment: immunoblotting of cyclin B1 in Ramos cells; format: cell-based, human; details: 24 h
Method: as §1, §2

CDK1 = details: read-out: Enzymatic IC50 values, CDK1, cited from earlier work
CDK4 = test system: CDK4; set-up: method as in Selleckchem.com; details: ref Selleckchem.com; read-out: Enzymatic IC50 values, CDK4; cited from earlier work
CDK5 = details: read-out: Enzymatic IC50 values, CDK5, cited from earlier work
CDK9 = details: read-out: Enzymatic IC50 values, CDK9, cited from earlier work
CDK2 = details: read-out: Enzymatic IC50 values, CDK2, cited from earlier work
CDK6 = test system: CDK6; set-up: method as in Selleckchem.com; details: ref Selleckchem.com; read-out: Enzymatic IC50 values, CDK6; cited from earlier work

Row | SMILES | proliferation (BrdU incorporation) (Ramos cells [4]) | pIC50 (CDK1; ref Selleckchem.com) | pIC50 (CDK4) | pIC50 (Ramos; cytotoxicity) | pIC50 (CDK9; ref Selleckchem.com) | pIC50 (CDK2; ref Selleckchem.com) | also measured
1 | COc1ccc(F)c(F)c1C(=O)c1cnc(NC2CCN(S(C)(=O)=O)CC2)nc1N [R547, [4-amino-2-(1-methanesulfonylpi peridin-4-ylamino)pyrimidin-5-yl](2,3-difluoro-6-methoxyphenyl) methanone, reference compound] | […] | 8.70 | […] |  |  |  | pIC50 (Ramos): 5.74; phosphorylation of RB at p-Thr821 ([1]; 0.1 and 1 µM (R547 1 µM)): loss of phosphorylation; phosphorylation of RB at p-Ser249 and p-Thr252 ([1]; 0.1 or 1 µM (R547 1 µM)): completely abrogated the phosphorylation of RB within 4 h; phosphorylation of RNA polymerase II at Ser2 [2]: less pronounced; effect on cell cycle phases (Ramos cells [3]): pronounced G2 arrest; expression of cyclin B1 (cyclin B1 expression): rather increased the expression of cyclin B1
2 | CC(C)(C)c1cnc(CSc2cnc(NC(=O)C3CCNCC3)s2)o1 [SNS-032] |  |  |  | 6.15 | […] |  | pIC50 (CDK5; ref Selleckchem.com): […]
3 | CCc1cnn2c(NCc3ccc[n+]([O-])c3)cc(N3CCCC[C@H]3CCO)nc12 [dinaciclib] | substantial decrease in proliferation |  |  |  |  |  | 
4 | CN1CC[C@H](c2c(O)cc(O)c3c(=O)cc(-c4ccccc4Cl)oc23)[C@H](O)C1 [flavopiridol] |  | […] | […] | 6.85 | […] | […] | pIC50 (CDK6): […]
5 | COc1ccnc2[nH]cc(-c3ccnc(N)n3)c12 [meriolin 3] | substantial decrease in proliferation |  |  | 6.89 |  |  | pIC50 (CDK1; ref [10, 12] of the supplement): 6.77; pIC50 (CDK2; ref [10, 12] of the supplement): 7.96; pIC50 (CDK5; ref [10, 12] of the supplement): 6.77; pIC50 (CDK9; ref [10, 12] of the supplement): 8.22
6 | CN1C/C=C/CCOc2cccc(c2)-c2ccnc(n2)Nc2cccc(c2)C1 [zotiraciclib] |  | 8.05 |  | 6.77 | 8.52 | 8.30 | 
